One test concerns the target TF/FVIIa (Homo sapiens, UniProt P08709). Put plainly: Inhibition of TF/factor VIIa (Table 1, affinity to receptors). Type of test: biochemical. The source says:
The inhibition of factor VIIa by the compounds according to the invention and the measurement of the anticoagulant and antithrombotic activity can be determined by conventional in-vitro or in-vivo methods. A conventional method for the measurement of the inhibition of factor VIIa is described, for example, by H. F. Ronning et al. in Thrombosis Research 1996, 84, 73-81.

For another test, the target named is FXa (Homo sapiens, UniProt P00742). Put plainly: Inhibition of factor Xa (Table 1, affinity to receptors). The test is classed as biochemical. The source says:
The inhibition of factor Xa by the compounds according to the invention and the measurement of the anticoagulant and antithrombotic activity can be determined by conventional in-vitro or in-vivo methods. A suitable method is described, for example, by J. Hauptmann et al. in Thrombosis and Haemostasis 1990, 63, 220-223.
The inhibition of factor Xa can be measured, for example, by the method of T. Hara et al. in Thromb. Haemostas. 1994, 71, 314-319.

Chain of FXa (P00742 235-488 limits assumed): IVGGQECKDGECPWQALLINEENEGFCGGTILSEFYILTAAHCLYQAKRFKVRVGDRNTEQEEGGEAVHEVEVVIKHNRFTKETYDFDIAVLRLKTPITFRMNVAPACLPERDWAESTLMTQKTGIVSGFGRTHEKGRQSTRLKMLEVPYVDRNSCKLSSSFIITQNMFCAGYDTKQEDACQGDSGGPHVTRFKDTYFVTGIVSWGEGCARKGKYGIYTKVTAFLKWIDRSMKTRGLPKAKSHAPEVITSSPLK
Chain of FXa (P00742 41-179 partner limits assumed): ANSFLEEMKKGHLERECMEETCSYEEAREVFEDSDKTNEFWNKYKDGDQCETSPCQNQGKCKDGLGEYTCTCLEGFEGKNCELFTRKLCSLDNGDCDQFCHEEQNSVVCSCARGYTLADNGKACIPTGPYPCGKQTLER
Chain of TF/FVIIa (P08709 213-466 limits assumed): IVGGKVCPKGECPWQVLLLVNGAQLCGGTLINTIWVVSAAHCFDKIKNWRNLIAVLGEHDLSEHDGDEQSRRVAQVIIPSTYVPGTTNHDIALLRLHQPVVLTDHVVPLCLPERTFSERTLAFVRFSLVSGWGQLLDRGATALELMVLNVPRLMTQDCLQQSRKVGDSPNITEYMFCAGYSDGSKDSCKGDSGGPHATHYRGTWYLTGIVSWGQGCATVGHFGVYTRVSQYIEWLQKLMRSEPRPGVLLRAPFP
Chain of TF/FVIIa (P08709 61-212 partner limits assumed): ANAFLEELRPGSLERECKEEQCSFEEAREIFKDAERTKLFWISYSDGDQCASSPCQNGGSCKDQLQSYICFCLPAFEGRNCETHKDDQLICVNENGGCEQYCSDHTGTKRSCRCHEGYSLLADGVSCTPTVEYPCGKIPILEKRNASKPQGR
Chain of TF/FVIIa (P13726 33-295 partner): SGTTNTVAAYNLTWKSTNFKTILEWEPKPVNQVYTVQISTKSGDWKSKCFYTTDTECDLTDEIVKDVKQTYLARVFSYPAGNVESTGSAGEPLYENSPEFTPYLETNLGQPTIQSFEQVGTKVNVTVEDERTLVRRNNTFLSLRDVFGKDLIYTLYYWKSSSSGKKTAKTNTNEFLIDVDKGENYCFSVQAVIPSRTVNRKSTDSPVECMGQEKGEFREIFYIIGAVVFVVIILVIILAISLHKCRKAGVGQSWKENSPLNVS

Regarding `CS(=O)(=O)c1ccccc1-c1ccc(NC(=O)NN(c2ccccc2)c2cccc(C(N)=NO)c2)c(F)c1` [Compound 8, 1-(3-N-hydroxyamidinophenyl)-4-(3-fluoro-2′-methylsulfonylbiphenyl-4-yl)-1-phenylsemicarbazide], the results for the half-inhibitory concentration (IC50) against TF/FVIIa and against FXa were 8.8 µM and 3.8 µM, respectively.
Regarding `CS(=O)(=O)c1ccccc1-c1ccc(NC(=O)NN(c2ccccc2)c2cccc(C(=N)N)c2)c(F)c1` [Compound 9, 1-(3-amidinophenyl)-4-(3-fluoro-2′-methylsulfonylbiphenyl-4-yl)-1-phenylsemicarbazide], the 50% inhibitory concentration (IC50) – broadly, the point on the concentration scale where inhibition reaches its midpoint – against TF/FVIIa was found to be 0.012 µM; on FXa, 0.028 µM.
Turning to `CS(=O)(=O)c1ccccc1-c1ccc(NC(=O)NN(c2ccccc2)c2cccc(CN)c2)c(F)c1` [Compound 10, 1-(3-aminomethylphenyl)-4-(3-fluoro-2′-methylsulfonylbiphenyl-4-yl)-1-phenylsemicarbazide], the figures for the IC50 against TF/FVIIa and against FXa were 4.2 µM and 2.4 µM, respectively.

The record behind these values is US20050119316A1, “Semicarbazide derivatives and the use thereof as antithrombotics” (Merch Patent GmbH, priority 2002, published 2005).
